Reference: patent US11780893B2, “Kv1.3 blockers” (Zealand Pharma A/S, priority 2019, dated 2023)
Like-named read-outs stand apart in the source and are kept apart here. Bridge positions count the residues as written; N and C are the ends. Square brackets hold non-standard residues; d marks the D form. Peptide text beside a SMILES is read from it. Nle = CCCC[C@H](N)C(=O)O

Experiments:
[1] = in vivo; conditions: male, rat, sc, 70 nmol/kg
[2] = biological target: Rat whole blood (Rattus norvegicus, UniProt P15384)
Rat whole blood, sequence (P15384 whole entry): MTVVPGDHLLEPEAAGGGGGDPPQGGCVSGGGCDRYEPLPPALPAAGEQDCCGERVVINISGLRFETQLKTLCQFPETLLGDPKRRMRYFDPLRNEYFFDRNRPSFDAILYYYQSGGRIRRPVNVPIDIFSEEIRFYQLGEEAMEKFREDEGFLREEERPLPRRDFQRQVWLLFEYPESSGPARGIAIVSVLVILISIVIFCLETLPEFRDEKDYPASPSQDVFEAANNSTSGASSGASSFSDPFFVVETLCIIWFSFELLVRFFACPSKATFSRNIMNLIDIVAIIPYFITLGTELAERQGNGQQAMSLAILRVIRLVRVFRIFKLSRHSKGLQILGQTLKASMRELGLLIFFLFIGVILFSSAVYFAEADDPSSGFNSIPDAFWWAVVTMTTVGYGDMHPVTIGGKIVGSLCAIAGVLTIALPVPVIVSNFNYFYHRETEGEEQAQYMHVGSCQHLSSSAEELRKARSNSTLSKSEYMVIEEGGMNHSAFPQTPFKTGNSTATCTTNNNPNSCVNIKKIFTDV

[3] = biological target: T1, human Kv1.3 voltage-gated K+ channel (Homo sapiens, UniProt P22001); experiment: cell-based
T1 construct: host or cells: CHO-DUKX
T1 sequence (P22001 whole entry): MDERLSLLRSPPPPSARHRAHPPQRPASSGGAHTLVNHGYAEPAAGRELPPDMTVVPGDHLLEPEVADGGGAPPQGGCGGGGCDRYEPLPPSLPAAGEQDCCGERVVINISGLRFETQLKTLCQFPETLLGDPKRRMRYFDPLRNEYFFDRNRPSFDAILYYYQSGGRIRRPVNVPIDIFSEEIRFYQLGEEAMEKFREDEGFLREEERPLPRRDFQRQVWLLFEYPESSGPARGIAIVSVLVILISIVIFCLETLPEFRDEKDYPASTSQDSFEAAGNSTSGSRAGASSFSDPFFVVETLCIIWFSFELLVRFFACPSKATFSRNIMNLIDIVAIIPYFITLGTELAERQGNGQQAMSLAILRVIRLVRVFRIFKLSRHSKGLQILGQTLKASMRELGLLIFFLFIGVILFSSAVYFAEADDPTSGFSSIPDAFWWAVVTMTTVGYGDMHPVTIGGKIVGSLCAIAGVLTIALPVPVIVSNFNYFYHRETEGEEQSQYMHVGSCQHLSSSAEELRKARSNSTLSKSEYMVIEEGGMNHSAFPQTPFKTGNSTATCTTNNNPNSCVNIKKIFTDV

[4] = tested on: delayed-type hypersensitivity (DTH) ear swelling response; assay type: in vivo, rat
[5] = biological target: T2, Kv1.1 (Homo sapiens, UniProt Q09470); experiment: cell-based; conditions: for Selectivity Kv1.1/Kv1.3: ratio IC50[Kv1.1]/IC50[Kv1.3]
T2 construct: expressed in transfected cells; host or cells: Chinese Hamster Ovary (CHO)
T2 sequence (Q09470 whole entry): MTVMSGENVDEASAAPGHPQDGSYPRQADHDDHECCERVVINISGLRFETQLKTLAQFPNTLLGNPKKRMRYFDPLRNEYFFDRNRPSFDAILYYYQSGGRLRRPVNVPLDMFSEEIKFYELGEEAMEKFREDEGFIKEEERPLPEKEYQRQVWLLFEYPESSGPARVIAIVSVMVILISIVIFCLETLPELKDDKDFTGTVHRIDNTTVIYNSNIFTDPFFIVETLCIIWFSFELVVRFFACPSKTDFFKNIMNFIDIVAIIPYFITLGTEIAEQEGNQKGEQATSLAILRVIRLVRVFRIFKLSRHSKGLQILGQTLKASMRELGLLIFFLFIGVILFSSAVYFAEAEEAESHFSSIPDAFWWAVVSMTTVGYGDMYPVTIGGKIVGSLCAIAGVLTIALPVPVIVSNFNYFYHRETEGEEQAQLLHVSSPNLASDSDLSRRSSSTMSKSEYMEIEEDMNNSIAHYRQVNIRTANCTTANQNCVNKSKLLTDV

[6] = biological target: T3, Kv1.2 (Homo sapiens, UniProt P16389); experiment: cell-based
T3 construct: expressed in transfected cells; host or cells: Chinese Hamster Ovary (CHO)
T3 sequence (P16389 whole entry): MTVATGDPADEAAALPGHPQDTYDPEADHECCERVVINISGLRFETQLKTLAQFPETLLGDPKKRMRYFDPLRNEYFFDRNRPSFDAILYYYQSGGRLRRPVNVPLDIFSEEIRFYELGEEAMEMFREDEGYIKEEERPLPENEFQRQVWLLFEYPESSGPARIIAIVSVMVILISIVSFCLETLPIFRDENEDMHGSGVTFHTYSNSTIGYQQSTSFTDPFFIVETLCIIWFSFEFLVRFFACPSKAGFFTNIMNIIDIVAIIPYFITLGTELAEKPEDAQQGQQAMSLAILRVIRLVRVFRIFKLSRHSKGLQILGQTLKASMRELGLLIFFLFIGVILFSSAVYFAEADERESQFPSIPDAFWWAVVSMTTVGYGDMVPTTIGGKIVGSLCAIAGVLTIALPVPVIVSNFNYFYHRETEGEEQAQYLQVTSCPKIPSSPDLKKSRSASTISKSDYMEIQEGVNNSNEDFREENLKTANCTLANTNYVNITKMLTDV

[7] = biological target: T4, Kv1.3 (Homo sapiens, UniProt P22001); experiment: cell-based
T4 construct: expressed in transfected cells; host or cells: Chinese Hamster Ovary (CHO)
T4 sequence (P22001 whole entry): as the sequence (P22001 whole entry) above

[8] = biological target: T5, Kv1.6 (Homo sapiens, UniProt P17658); experiment: cell-based; conditions: for Selectivity Kv1.6/Kv1.3: ratio IC50[Kv1.6]/IC50[Kv1.3]
T5 construct: expressed in transfected cells; host or cells: Chinese Hamster Ovary (CHO)
T5 sequence (P17658 whole entry): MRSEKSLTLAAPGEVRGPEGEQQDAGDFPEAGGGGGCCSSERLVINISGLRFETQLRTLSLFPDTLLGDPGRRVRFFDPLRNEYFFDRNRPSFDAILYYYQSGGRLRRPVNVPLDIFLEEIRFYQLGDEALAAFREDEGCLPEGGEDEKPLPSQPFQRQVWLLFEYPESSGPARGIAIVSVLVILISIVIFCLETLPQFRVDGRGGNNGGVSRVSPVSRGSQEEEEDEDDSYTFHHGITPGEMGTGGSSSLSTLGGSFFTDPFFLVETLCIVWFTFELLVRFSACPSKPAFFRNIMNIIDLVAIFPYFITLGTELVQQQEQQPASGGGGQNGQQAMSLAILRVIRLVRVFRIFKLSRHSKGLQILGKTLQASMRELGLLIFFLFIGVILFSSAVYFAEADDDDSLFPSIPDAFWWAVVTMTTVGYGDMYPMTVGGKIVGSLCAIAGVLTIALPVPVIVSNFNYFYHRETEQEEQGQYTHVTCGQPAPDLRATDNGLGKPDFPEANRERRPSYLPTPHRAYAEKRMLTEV

[9] = inhibition of thallium flux, CHO-DUKX cells with human Kv1.3, read-out: IC50
[10] = CHO cells, whole-cell patch clamp, read-out: Potency IC50 (nM) Kv1.1
[11] = CHO cells, whole-cell patch clamp, read-out: Potency IC50 (nM) Kv1.2
[12] = CHO cells, whole-cell patch clamp, read-out: Potency IC50 (nM) Kv1.3
[13] = CHO cells, whole-cell patch clamp, read-out: Potency IC50 (nM) Kv1.6

SMILES	AUC(0-inf) [1]	Cmax [1]	half-life [1]	IC50 [2]	IC50 [3, 9]	IC50 [5, 10]	Selectivity Kv1.1/Kv1.3 [5]	IC50 [6, 11]	IC50 [7, 12]	IC50 [8, 13]	Selectivity Kv1.6/Kv1.3 [8]	further results
CC[C@H](C)[C@@H]1NC(=O)[C@H](C)NC(=O)[C@H](C)NC(=O)[C@H](CC(C)C)NC(=O)[C@@H]2CSSC[C@@H](C(=O)N[C@@H](Cc3ccc(O)cc3)C(=O)N3CCC[C@H]3C(=O)N[C@@H](CCCNC(=N)N)C(N)=O)NC(=O)[C@H](CCCCN)NC(=O)[C@@H]3CSSC[C@H](NC(=O)[C@H](CCC(=O)O)NC(=O)[C@H](C(C)C)NC(=O)[C@H](CO)NC(=O)[C@H](C)NC(=O)[C@H](CO)NC(=O)[C@@H](NC(=O)[C@H](CCCNC(=N)N)NC(=O)[C@H](CCSC)NC(=O)[C@H](CC(=O)O)NC(=O)[C@H](CCSC)NC(=O)[C@@H](N)CC(N)=O)CSSC[C@H](NC(=O)[C@H](CCCCN)NC(=O)CNC(=O)[C@H](Cc4ccccc4)NC(=O)[C@H]([C@@H](C)CC)NC(=O)[C@H](CO)NC(=O)CNC1=O)C(=O)N[C@@H](CCSC)C(=O)N[C@@H](CC(N)=O)C(=O)N[C@@H](CCCCN)C(=O)N[C@@H](CCCCN)C(=O)N3)C(=O)N[C@@H](CCCCN)C(=O)N[C@@H](CCC(N)=O)C(=O)N[C@@H](CCCCN)C(=O)N2 [Compound 52] (H-NMDMRCSASVECKQKCLAAIGSIFGKCMNKKCKCYPR-NH2; disulfide 6-27, 12-32, 16-34)	0.0485 µM·h	31.2 nM	0.89 h	≤ 1 nM	0.11 nM	> 3000 nM	>27500	88 nM	0.11 nM	> 3000 nM	>27500	% inhibition of ear thickness (AUC of Δ ear thickness 0-48 hours) ([4]; Exp #4, Kv1.3 blocker 100 nmol/kg SC 24 hrs prior to KLH challenge, CsA 10 mg/kg per os, +/- SD): 25.1%
CCCC[C@@H]1NC(=O)[C@@H]2CSSC[C@H](NC(=O)[C@H](CCCNC(=N)N)NC(=O)[C@H](CCCC)NC(=O)[C@H](CC(=O)O)NC(=O)[C@@H](NC(=O)[C@@H](N)CC(N)=O)[C@@H](C)CC)C(=O)N[C@@H](CO)C(=O)N[C@@H](C)C(=O)N[C@@H](CO)C(=O)N[C@@H](C(C)C)C(=O)N[C@@H](CCC(=O)O)C(=O)N[C@H]3CSSC[C@H](NC(=O)[C@H](CCCCN)NC(=O)[C@H](CCCCN)NC(=O)[C@H](CC(N)=O)NC1=O)C(=O)N[C@@H](CCCCN)C(=O)N[C@H](C(=O)N[C@@H](Cc1ccc(O)cc1)C(=O)N1CCC[C@H]1C(=O)N[C@@H](CCCNC(=N)N)C(=O)O)CSSC[C@H](NC(=O)[C@H](CCCCN)NC(=O)[C@H](CCC(N)=O)NC(=O)[C@H](CCCCN)NC3=O)C(=O)N[C@@H](CC(C)C)C(=O)N[C@@H](CCCCN)C(=O)N[C@@H](C)C(=O)N[C@@H]([C@@H](C)CC)C(=O)NCC(=O)N[C@@H](CO)C(=O)N[C@@H]([C@@H](C)CC)C(=O)N[C@@H](Cc1ccccc1)C(=O)NCC(=O)N[C@@H](CCCCN)C(=O)N2 [Compound 95] (H-NID[Nle]RCSASVECKQKCLKAIGSIFGKC[Nle]NKKCKCYPR-OH; disulfide 6-27, 12-32, 16-34)	0.085 µM·h	46.5 nM	1.09 h		0.16 nM	> 3000 nM	>11300	2060 nM	0.27 nM	> 3000 nM	>11300	% inhibition of ear thickness (AUC of Δ ear thickness 0-48 hours) ([4]; Exp #5, Kv1.3 blocker 100 nmol/kg SC 24 hrs prior to KLH challenge, CsA 10 mg/kg per os): 39.6%
CCCC[C@H](NC(=O)[C@@H]1CCCN1)C(=O)N[C@@H](CCC(=O)O)C(=O)N[C@@H](CCCC)C(=O)N[C@@H](CCCNC(=N)N)C(=O)N[C@H]1CSSC[C@@H]2NC(=O)[C@H](CCCCN)NC(=O)CNC(=O)[C@H](Cc3ccccc3)NC(=O)[C@H]([C@@H](C)CC)NC(=O)[C@H](CO)NC(=O)CNC(=O)[C@H]([C@@H](C)CC)NC(=O)[C@H](C)NC(=O)[C@H](C)NC(=O)[C@H](CC(C)C)NC(=O)[C@@H]3CSSC[C@@H](C(=O)N[C@@H](Cc4ccc(O)cc4)C(=O)N4CCC[C@H]4C(=O)N[C@@H](CCCNC(=N)N)C(=O)O)NC(=O)[C@H](CCCCN)NC(=O)[C@H](CSSC[C@H](NC(=O)[C@H](CCC(=O)O)NC(=O)[C@H](C(C)C)NC(=O)[C@H](CO)NC(=O)[C@H](C)NC(=O)[C@H](CO)NC1=O)C(=O)N[C@@H](CCCCN)C(=O)N[C@@H](CCC(N)=O)C(=O)N[C@@H](CCCCN)C(=O)N3)NC(=O)[C@H](CCCCN)NC(=O)[C@H](CCCCN)NC(=O)[C@H](CC(N)=O)NC(=O)[C@H](CCCC)NC2=O [Compound 97] (H-P[Nle]E[Nle]RCSASVECKQKCLAAIGSIFGKC[Nle]NKKCKCYPR-OH; disulfide 6-27, 12-32, 16-34)	0.112 µM·h	52.6 nM	1.04 h	≤ 1 nM	0.15 nM	> 3000 nM	>9100	1120 nM	0.33 nM	> 3000 nM	>9100	% inhibition of ear thickness (AUC of Δ ear thickness 0-48 hours) ([4]; Exp #6, Kv1.3 blocker 100 nmol/kg SC 24 hrs prior to KLH challenge, CsA 10 mg/kg per os): 42.5%; % inhibition of ear thickness (AUC of Δ ear thickness 0-48 hours) ([4]; Exp #8, Kv1.3 blocker 100 nmol/kg SC 24 hrs prior to KLH challenge, CsA 10 mg/kg per os): 37.7%
CCCC[C@@H]1NC(=O)[C@@H]2CSSC[C@H](NC(=O)[C@H](CCCNC(=N)N)NC(=O)[C@H](CCCC)NC(=O)[C@H](CCC(=O)O)NC(=O)[C@@H](NC(=O)[C@@H]3CCCN3)[C@@H](C)CC)C(=O)N[C@@H](CO)C(=O)N[C@@H](C)C(=O)N[C@@H](CO)C(=O)N[C@@H](C(C)C)C(=O)N[C@@H](CCC(=O)O)C(=O)N[C@H]3CSSC[C@H](NC(=O)[C@H](CCCCN)NC(=O)[C@H](CCCCN)NC(=O)[C@H](CC(N)=O)NC1=O)C(=O)N[C@@H](CCCCN)C(=O)N[C@H](C(=O)N[C@@H](Cc1ccc(O)cc1)C(=O)N1CCC[C@H]1C(=O)N[C@@H](CCCNC(=N)N)C(=O)O)CSSC[C@H](NC(=O)[C@H](CCCCN)NC(=O)[C@H](CCC(N)=O)NC(=O)[C@H](CCCCN)NC3=O)C(=O)N[C@@H](CC(C)C)C(=O)N[C@@H](C)C(=O)N[C@@H](C)C(=O)N[C@@H]([C@@H](C)CC)C(=O)NCC(=O)N[C@@H](CO)C(=O)N[C@@H]([C@@H](C)CC)C(=O)N[C@@H](Cc1ccccc1)C(=O)NCC(=O)N[C@@H](CCCCN)C(=O)N2 [Compound 101] (H-PIE[Nle]RCSASVECKQKCLAAIGSIFGKC[Nle]NKKCKCYPR-OH; disulfide 6-27, 12-32, 16-34)	0.132 µM·h	58.6 nM	0.91 h	≤ 1 nM								IC50 [3]: 0.18 nM; % inhibition of ear thickness (AUC of Δ ear thickness 0-48 hours) ([4]; rat, in vivo): 44.5%; IC50 [5]: > 3000 nM; IC50 [6]: 1970 nM; IC50 [7]: 0.35 nM; IC50 [8]: > 3000 nM
CCCC[C@H](NC(=O)[C@@H]1CCCN1)C(=O)N[C@@H](CCC(=O)O)C(=O)N[C@@H](CCCC)C(=O)N[C@@H](CCCNC(=N)N)C(=O)N[C@H]1CSSC[C@@H]2NC(=O)[C@H](CCCCN)NC(=O)CNC(=O)[C@H](Cc3ccccc3)NC(=O)[C@H]([C@@H](C)CC)NC(=O)[C@H](CO)NC(=O)CNC(=O)[C@H]([C@@H](C)CC)NC(=O)[C@H](C)NC(=O)[C@H](C)NC(=O)[C@H](CC(C)C)NC(=O)[C@@H]3CSSC[C@@H](C(=O)N[C@@H](Cc4ccc(O)cc4)C(=O)N4CCC[C@H]4C(=O)N[C@@H](CCCNC(=N)N)C(=O)O)NC(=O)[C@H](CCCCN)NC(=O)[C@H](CSSC[C@H](NC(=O)[C@H](CCC(=O)O)NC(=O)[C@H](C(C)C)NC(=O)[C@H](CO)NC(=O)[C@H](C)NC(=O)[C@H](CO)NC1=O)C(=O)N[C@@H](C)C(=O)N[C@@H](CCC(N)=O)C(=O)N[C@@H](CCCCN)C(=O)N3)NC(=O)[C@H](CCCCN)NC(=O)[C@H](CCCCN)NC(=O)[C@H](CC(N)=O)NC(=O)[C@H](CCCC)NC2=O [Compound 103] (H-P[Nle]E[Nle]RCSASVECAQKCLAAIGSIFGKC[Nle]NKKCKCYPR-OH; disulfide 6-27, 12-32, 16-34)	0.177 µM·h	68.4 nM	1.36 h		0.38 nM	> 3000 nM	>5500	> 3000 nM	0.55 nM	> 3000 nM	>5500	% inhibition of ear thickness (AUC of Δ ear thickness 0-48 hours) ([4]; Exp #7, Kv1.3 blocker 100 nmol/kg SC 24 hrs prior to KLH challenge, CsA 10 mg/kg per os): 48.9%
